Results published in PubChem BioAssay (NCI).
Values joined by “and” are separate entries in the source; they are usually repeats but may differ in a detail not shown here. Equal values may be shown once.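 Interpolation was linear, between the two tested concentrations surrounding the appropriate level; five concentrations were tested over 48 hours in 96-well plates. Abbreviation: GI50, concentration required for 50% inhibition of growth. Definition used: TGI = concentration required for complete inhibition of growth.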

What was measured:
Experiment in all cases: NCI anticancer screen, dose series, 48 h
SF-268 CNS = system: SF-268 CNS
A549 NSCLC = system: A549 NSCLC
A498 renal = system: A498 renal
HCT-116 colon = system: HCT-116 colon
MOLT-4 leukemia = system: MOLT-4 leukemia
HCC-2998 colon = system: HCC-2998 colon
NCI-H23 lung = system: NCI-H23 lung
UACC-257 melanoma = system: UACC-257 melanoma
DU-145 prostate = system: DU-145 prostate
HS 578T breast = system: HS 578T breast

Row | SMILES | TGI (SF-268 CNS) [µM] | TGI (A549 NSCLC) [µM] | TGI (A498 renal) [µM] | TGI (HCT-116 colon) [µM] | TGI (MOLT-4 leukemia) [µM] | TGI (HCC-2998 colon) [µM] | TGI (NCI-H23 lung) [µM] | TGI (UACC-257 melanoma) | GI50 (SF-268 CNS) [µM] | GI50 (A549 NSCLC) [µM] | GI50 (DU-145 prostate) [µM] | TGI (DU-145 prostate) [µM] | GI50 (HCT-116 colon) [µM] | GI50 (MOLT-4 leukemia) [µM] | GI50 (HCC-2998 colon) [µM] | GI50 (NCI-H23 lung) [µM] | GI50 (HS 578T breast) [µM] | TGI (HS 578T breast) [µM] | GI50 (UACC-257 melanoma) [µM] | GI50 (A498 renal) [µM]
1 | COc1ccc2oc3c(OC)c(OC)c(OC)cc3c(=O)c2c1 | > 100 | > 100 | > 100 | > 100 | > 100 | > 100 | > 100 | > 100 µM | – | – | – | – | – | – | – | – | – | – | – | –
2 | COCCOc1cc(C)cc(/C=C(C)/C=C/C2=C(C)CCCC2(C)C)n1 | > 100 | > 100 | > 100 | > 100 | > 100 | – | > 100 | > 100 µM | – | – | – | – | – | – | – | – | – | – | – | –
3 | NC1c2ccccc2Nc2ccccc21 | 13.9 | 19.8 | 22.8 | 13.6 | 8.1 | 18.1 | 17.5 | 17.4 µM | – | – | – | – | – | – | – | – | – | – | – | –
4 | CC/C(Cc1ccccc1)=C(\c1ccc(OCCN2CCCC2)cc1)c1ccc(OC(=O)NCc2ccccc2)cc1 | 3.77 | 3.47 | – | 3 | 5.66 | 2.94 | 13.7 | 3.81 µM | 1.81 | 1.88 | 2.14 | 4.7 | 1.64 | 2.23 | 1.51 | 3.43 | 1.97 | 4.32 | 1.91 | –
5 | COc1ccc(-c2ccc(/C=N/n3c(COc4ccccc4Cl)nn(CN4CCOCC4)c3=S)o2)c([N+](=O)[O-])c1 | 63.4 | > 100 | – | 41.1 | 51.7 | 56.8 | 62.7 | – | 24 | 27.4 | 34.1 | > 100 | 19.6 | 19.3 | 24.1 | 22.9 | 33.9 | 90.4 | – | –
6 | N#Cc1ccccc1NC(=O)C(=O)C1NC(=S)NC1=O (configuration not stated) | > 100 | > 100 | > 100 | > 100 | > 100 | > 100 | > 100 | > 100 µM | – | – | – | – | – | – | – | – | – | – | – | –
7 | CC1OC(=O)C(O)=C1O (configuration not stated) | > 100 | > 100 | – | > 100 | > 100 | > 100 | > 100 | > 100 µM | – | – | – | – | – | – | – | – | – | – | – | –
8 | CC1=C(C(=O)Nc2ccccc2)C(c2ccccc2Cl)C(C(=O)Nc2ccccc2)=C(C)N1 | 50.5 | > 100 | 58.5 | 47.6 | 60.1 | 43.5 | 71.7 | 38.5 µM | – | – | – | – | – | – | – | – | – | – | – | –
9 | CC(C)c1cccc(C(C)C)c1N1C(=O)C(=O)C(c2nc3ccccc3o2)C(=O)C1=O | > 100 | > 100 | > 100 | > 100 | – | > 100 | > 100 | > 100 µM | – | – | – | – | – | – | – | – | – | – | – | –
10 | Cc1ccc2nc(NC(=O)C(=O)C(C#N)c3ccc(Cl)cc3)sc2c1 (configuration not stated) | > 50 | > 50 | – | > 50 | – | > 50 | > 50 | > 50 µM | – | – | – | – | – | – | – | – | – | – | – | –
11 | CCCCCC(O)C(O)CCC[C@H](O)[C@H]1CC[C@H]([C@H]2CC[C@H]([C@H](O)CCCCCCCCCCCCC3=C[C@H](C)OC3=O)O2)O1 (some centres not stated) | 40.8 | > 100 | – | 38.7 | – | 41.3 | 23.3 | 8.7 µM and 18.6 µM | 12.4 | 3.48 | – | – | 0.0933 | – | – | – | – | – | 1.29 | –
12 | O=[N+]([O-])c1ccc(Cl)c(CNc2ncnc3c2ncn3C2CCCCO2)c1 (configuration not stated) | > 100 | > 100 | 43.9 | > 100 | 88.2 | – | > 100 | – | – | – | – | > 100 | – | – | – | – | – | > 100 | – | –
13 | Cc1ccc(-c2nc(/C=N/Nc3cc(C)nc4ccc(Cl)cc34)c(C)o2)cc1 | – | 3.77 | 3.77 | 3.23 | 4.88 | 3.77 | 4.48 | 3.31 µM | – | 1.83 | 2.49 | 6.67 | 1.79 | 2.02 | 2.07 | 2.17 | – | – | 1.71 | 1.61
14 | CN1Cc2ccccc2/C=C\c2ccccc21 | > 100 | > 100 | > 100 | > 100 | – | > 100 | > 100 | > 100 µM | – | – | – | > 100 | – | – | – | – | – | > 100 | – | –
15 | C1CCCCc2nc3c(nc2CCC1)c1nc2c(nc1c1nc4c(nc31)CCCCCCCC4)CCCCCCCC2 | > 100 | > 100 | > 100 | > 100 | > 100 | > 100 | > 100 | > 100 µM | – | – | – | – | – | – | – | – | – | – | – | –
16 | Clc1ccc(-c2c3ccc(=[N+]4CCCCC4)cc-3oc3cc(N4CCCCC4)ccc23)cc1 | – | – | 0.15 | – | 0.741 | 0.248 | – | 0.304 µM | – | – | 0.0632 | 0.214 | – | 0.159 | 0.12 | – | – | – | 0.13 | 0.035
17 | COc1ccc(C2=Nc3ccccc3SC(C)C2)cc1OC (configuration not stated) | 43.5 | – | 39.8 | 32.1 | 34.8 | 32.6 | 38.5 | 49.6 µM | – | – | – | – | – | – | – | – | – | – | – | –
18 | Cc1ccc(N=C[N-]c2ccc(C)cc2)cc1.Cc1ccc(N=C[N-]c2ccc(C)cc2)cc1.O=C([O-])C(F)(F)F.O=C([O-])C(F)(F)F.[OH3+].[OH3+].[Rh+2].[Rh+2] | 81.6 | > 100 | – | 35.4 | 42.7 | > 100 | 70.3 | > 100 µM | 28.4 | > 100 | – | – | 16.7 | 19 | 36.5 | 25.9 | – | – | 64.7 | –
19 | Cc1ccc(NC(=O)C(=O)CC(=O)c2c(C)n([O-])c3ccccc3[n+]2=O)cc1C | > 100 | > 100 | > 100 | > 100 | – | > 100 | > 100 | > 100 µM | – | – | – | – | – | – | – | – | – | – | – | –
20 | CCC(C)CC(C)CC(C)/C=C(\C)C1=C(C)CC(C)(O)O1 (configuration not stated) | – | > 100 | > 100 | > 100 | > 100 | > 100 | > 100 | > 100 µM | – | – | – | – | – | – | – | – | – | – | – | –
21 | COC1=CC(C2c3cc4c(cc3[C@@H](Nc3ccc(F)cc3)C3COC(=O)[C@H]23)OCO4)=CC(=O)C1=O (some centres not stated) | 36.6 | 20.4 | 16 | 30.5 | 14.5 | 39.6 | 9.97 | > 63.9 µM | – | – | – | – | – | – | – | – | – | – | – | –
22 | C/C(CN1C(=O)c2ccccc2C1=O)=N\NS(=O)(=O)c1cccc(C(=O)O)c1 | > 100 | > 100 | > 100 | > 100 | > 100 | > 100 | > 100 | > 100 µM | – | – | – | – | – | – | – | – | – | – | – | –
23 | O=C(O)CCNS(=O)(=O)c1ccc2ccccc2c1 | > 100 | > 100 | > 100 | – | > 100 | > 100 | > 100 | > 100 µM | – | – | – | – | – | – | – | – | – | – | – | –
